Results: patent US8129366B2, “VLA-4 inhibitory drug” (Daiichi Sankyo Company, Limited, priority 2005, dated 2012)

Target: T1, hα4 and β1 integrins (Homo sapiens, UniProt P05556+P13612)
T1 construct: expressed in transfected cells; host or cells: CHO cells
Experiment: In vitro inhibition of binding between CHO cells expressing hα4 and β1 integrins and Eu3+-hVCAM-1 D1D7-IgG
Settings: for Ki: CHO cells expressing hα4 and β1 integrins, Eu3+-hVCAM-1 D1D7-IgG ligand, without HSA; for IC50: in the presence of 3% human serum albumin (HSA final concentration 3%)
Procedure: CHO cells which forcibly expressed hα4 and β1 integrins through transfection thereof, were inoculated into a Costar 3599 plate (3×10^4 cells/100 μl/well), and cultured for two days. The cells in the wells were washed two times with buffer A*, and then Eu^3+-hVCAM-1 D1D7-IgG diluted with assay buffer** to 2 nM was added in an amount of 50 μl/well. The substance under test diluted with 26 DMSO-assay buffer (in the co-presence or absence of 6% human serum albumin) was added in an amount of 50 μl/well (adding separately diluted solution to the wells for performing Scatchard analysis), the contents were stirred for 5 minutes with a plate mixer, and then the plate was left to stand still for one hour at room temperature. The binding inhibitory activity in the presence of human serum albumin (HSA) was examined by diluting the specimen with 26 DMSO-assay buffer containing 6% HSA (SIGMA Corp., c/n A-1653), and adding the resultant (HSA final concentration 3%). After 30 to 60 minutes of the addition of specimen, the plate contents were washed 4 times with buffer A at 4° C., an enhancing reagent (DELFIA SA) was added in an amount of 100 μl/well, and the plate was shaken for 5 minutes using a plate mixer. Subsequently, the fluorescence intensity was measured with a time-resolved fluorometer (DELFIA Wallac). The IC50 of the substance under test (the concentration for 50% inhibition of the binding between CHO cells and Eu^3+-hVCAM-1 D1D7-IgG) was determined from the binding rate obtained from the calculating expression of [(FT−FNS)−(FI−FNS)]/[(FT−FNS)]×100. Here, FT represents the fluorescence intensity of a well not containing the substance under test; FNS represents the fluorescence intensity of a well not containing the substance under test and hVCAM-1 D1D7-IgG; and FI represents the fluorescence intensity of a well containing the substance under test. The Kd value which represents the strength of binding, and Bmax (maximum binding amount) were estimated to be in the range of 0.06 to 20 nM according to the Scatchard analysis method. The evaluation results of the Ki value of the substance under test, and of the IC50 value in the presence of 3% HSA are presented in Tables 2 to 7.
The Ki value was calculated according to the above-described expression. ([L] is the ligand concentration)
[* buffer A: 25 mM HEPES (pH 7.5), 150 mM NaCl, 1 mM Ca^2+, 1 mM Mg^2+, 4 mM Mn2+;
** assay buffer: 25 mM HEPES (pH=7.5), 150 mM NaCl, 1 mM Ca^2+, 1 mM Mg^2+, 4 mM Mn^2+, 0.1% BSA, 20 μM DTPA, with/without 6% ALBUMIN, HUMAN SERUM (C/N A-1653, SIGMA)]

T1 sequence (P13612 34-1032): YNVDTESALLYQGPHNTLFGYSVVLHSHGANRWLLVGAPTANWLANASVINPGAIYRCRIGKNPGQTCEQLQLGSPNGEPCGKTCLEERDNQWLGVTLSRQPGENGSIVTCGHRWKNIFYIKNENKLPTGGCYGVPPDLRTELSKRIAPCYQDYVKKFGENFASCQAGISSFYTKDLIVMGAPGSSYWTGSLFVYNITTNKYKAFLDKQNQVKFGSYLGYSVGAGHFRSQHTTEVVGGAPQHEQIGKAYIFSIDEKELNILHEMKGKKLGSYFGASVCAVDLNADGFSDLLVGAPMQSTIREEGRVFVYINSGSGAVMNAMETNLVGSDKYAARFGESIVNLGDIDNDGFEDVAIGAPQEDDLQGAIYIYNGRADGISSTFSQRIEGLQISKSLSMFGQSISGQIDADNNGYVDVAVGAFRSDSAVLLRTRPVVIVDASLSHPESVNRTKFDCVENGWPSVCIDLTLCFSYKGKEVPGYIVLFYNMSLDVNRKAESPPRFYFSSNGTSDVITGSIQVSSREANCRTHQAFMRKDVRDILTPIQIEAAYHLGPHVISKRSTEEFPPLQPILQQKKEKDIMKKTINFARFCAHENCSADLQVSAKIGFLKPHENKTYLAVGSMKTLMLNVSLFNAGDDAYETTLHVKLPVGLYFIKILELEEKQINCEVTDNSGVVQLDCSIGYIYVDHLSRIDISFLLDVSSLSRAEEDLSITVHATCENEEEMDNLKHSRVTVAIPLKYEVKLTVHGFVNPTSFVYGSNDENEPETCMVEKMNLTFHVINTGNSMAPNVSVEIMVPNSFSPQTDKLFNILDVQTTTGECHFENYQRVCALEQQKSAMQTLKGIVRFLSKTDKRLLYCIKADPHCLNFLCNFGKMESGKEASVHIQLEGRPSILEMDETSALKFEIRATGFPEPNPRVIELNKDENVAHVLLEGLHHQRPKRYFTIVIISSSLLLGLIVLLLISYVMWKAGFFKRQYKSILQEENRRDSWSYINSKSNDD
T1 sequence (P05556 21-798): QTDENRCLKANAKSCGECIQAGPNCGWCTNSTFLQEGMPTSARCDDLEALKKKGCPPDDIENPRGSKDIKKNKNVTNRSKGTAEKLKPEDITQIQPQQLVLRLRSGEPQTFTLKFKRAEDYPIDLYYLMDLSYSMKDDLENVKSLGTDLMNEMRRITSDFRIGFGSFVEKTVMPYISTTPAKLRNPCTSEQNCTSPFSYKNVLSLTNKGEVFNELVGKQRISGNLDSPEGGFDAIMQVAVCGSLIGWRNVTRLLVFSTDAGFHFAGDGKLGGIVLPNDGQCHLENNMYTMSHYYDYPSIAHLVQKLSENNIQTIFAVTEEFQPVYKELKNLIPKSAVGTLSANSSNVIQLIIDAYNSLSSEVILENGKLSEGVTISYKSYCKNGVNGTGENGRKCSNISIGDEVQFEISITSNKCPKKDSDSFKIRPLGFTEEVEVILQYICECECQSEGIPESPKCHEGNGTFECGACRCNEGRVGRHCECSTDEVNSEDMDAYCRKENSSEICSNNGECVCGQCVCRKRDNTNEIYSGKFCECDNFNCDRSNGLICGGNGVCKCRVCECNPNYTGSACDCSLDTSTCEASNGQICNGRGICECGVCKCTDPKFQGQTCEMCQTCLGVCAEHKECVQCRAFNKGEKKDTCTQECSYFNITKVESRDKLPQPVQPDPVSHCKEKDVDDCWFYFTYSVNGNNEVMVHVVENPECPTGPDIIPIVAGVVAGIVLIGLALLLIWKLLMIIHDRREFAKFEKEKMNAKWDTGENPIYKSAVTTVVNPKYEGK

| Compound | Ki | IC50 |
| --- | --- | --- |
| COC1CN([C@H]2C[C@@H](CO[C@H]3CC[C@H](C(=O)O)CC3)N(C(=O)Cc3cc(Cl)c(NC(=O)c4coc5ccccc45)cc3Cl)C2)C1 [Example 6, Trans-4-[1-[[4-[(benzo[b]furan-3-ylcarbonyl)amino]-2,5-dichlorophenyl]acetyl]-(4S)-(3-methoxyazetidin-1-yl)-(2S)-pyrrolidinylmethoxy]cyclohexanecarboxylic acid] | 5.9 nM | 76 nM |
| O=C(Nc1cc(F)c(CC(=O)N2C[C@@H](N3CC(CF)C3)C[C@H]2CO[C@H]2CC[C@H](C(=O)O)CC2)cc1Cl)c1coc2ccccc12 [Example 13, Trans-4-[1-[[4-[(benzo[b]furan-3-ylcarbonyl)amino]-5-chloro-2-fluorophenyl]acetyl]-(4S)-[3-(fluoromethyl)azetidin-1-yl]-(2S)-pyrrolidinylmethoxy]cyclohexanecarboxylic acid] | 7.7 nM | 64 nM |
| COC1(C)CN([C@H]2C[C@@H](CO[C@H]3CC[C@H](C(=O)O)CC3)N(C(=O)Cc3cc(Cl)c(NC(=O)c4cn(C)c5ccccc45)cc3F)C2)C1 [Example 16, Trans-4-[1-[[5-chloro-2-fluoro-4-[(1-methyl-1H-indol-3-ylcarbonyl)amino]phenyl]acetyl]-(4S)-(3-methoxy-3-methylazetidin-1-yl)-(2S)-pyrrolidinylmethoxy]cyclohexanecarboxylic acid] | 5.3 nM | 41 nM |
| Cn1cc(C(=O)Nc2cc(F)c(CC(=O)N3C[C@@H](N4CC[C@H](F)C4)C[C@H]3CO[C@H]3CC[C@H](C(=O)O)CC3)cc2Cl)c2ccccc21 [Example 37, Trans-4-[1-[[5-chloro-2-fluoro-4-[(1-methyl-1H-indol-3-ylcarbonyl)amino]phenyl]acetyl]-(4S)-[(3S)-fluoropyrrolidin-1-yl]-(2S)-pyrrolidinylmethoxy]cyclohexanecarboxylic acid] | 2.1 nM | 9.2 nM |
| CCOC[C@@H]1CCCN1[C@H]1C[C@@H](CO[C@H]2CC[C@H](C(=O)O)CC2)N(C(=O)Cc2cc(Cl)c(NC(=O)c3csc4ccccc34)cc2Cl)C1 [Example 43, Trans-4-[1-[[4-[(benzo[b]thiophen-3-ylcarbonyl)amino]-2,5-dichlorophenyl]acetyl]-(4S)-[(2S)-ethoxymethylpyrrolidin-1-yl]-(2S)-pyrrolidinylmethoxy]cyclohexanecarboxylic acid] | 2 nM | 38 nM |
| COC[C@@H]1C[C@H](F)CN1[C@H]1C[C@@H](CO[C@H]2CC[C@H](C(=O)O)CC2)N(C(=O)Cc2cc(Cl)c(NC(=O)c3cn(C)c4ccccc34)cc2Cl)C1 [Example 45, Trans-4-[1-[[2,5-dichloro-4-[(1-methyl-1H-indol-3-ylcarbonyl)amino]phenyl]acetyl]-(4S)-[(4S)-fluoro-(2S)-methoxymethylpyrrolidin-1-yl]-(2S)-pyrrolidinylmethoxy]cyclohexane carboxylic acid] | 14 nM | 15 nM |
| C[C@@H]1CC[C@@H](C)N1[C@H]1C[C@@H](CO[C@H]2CC[C@H](C(=O)O)CC2)N(C(=O)Cc2cc(Cl)c(NC(=O)c3coc4ccccc34)cc2F)C1 [Example 47, Trans-4-[1-[[4-[(benzo[b]furan-3-ylcarbonyl)amino]-5-chloro-2-fluorophenyl]acetyl]-(4S)-[(2R,5R)-dimethylpyrrolidin-1-yl]-(2S)-pyrrolidinylmethoxy]cyclohexanecarboxylic acid] | 18 nM | 52 nM |

The remaining lines, values ahead:

| Ki | IC50 | Compound |
| --- | --- | --- |
| 1.4 nM | 8.2 nM | O=C(Nc1cc(F)c(CC(=O)N2C[C@@H](N3CCC3)C[C@H]2CO[C@H]2CC[C@H](C(=O)O)CC2)cc1Cl)c1csc2ccccc12 [Example 9, Trans-4-[(4S)-(azetidin-1-yl)-1-[[4-[(benzo[b]thiophen-3-ylcarbonyl)amino]-5-chloro-2-fluorophenyl]acetyl]-(2S)-pyrrolidinylmethoxy]cyclohexanecarboxylic acid] |
| 3.5 nM | 21 nM | CC1CN([C@H]2C[C@@H](CO[C@H]3CC[C@H](C(=O)O)CC3)N(C(=O)Cc3cc(Cl)c(NC(=O)c4coc5ccccc45)cc3F)C2)C1 [Example 11, Trans-4-[1-[[4-[(benzo[b]furan-3-ylcarbonyl)amino]-5-chloro-2-fluorophenyl]acetyl]-(4S)-(3-methylazetidin-1-yl)-(2S)-pyrrolidinylmethoxy]cyclohexanecarboxylic acid] |
| 1.8 nM | 48 nM | CCC1(OC)CN([C@H]2C[C@@H](CO[C@H]3CC[C@H](C(=O)O)CC3)N(C(=O)Cc3cc(Cl)c(NC(=O)c4csc5ccccc45)cc3F)C2)C1 [Example 17, Trans-4-[1-[[4-[(benzo[b]thiophen-3-ylcarbonyl)amino]-5-chloro-2-fluorophenyl]acetyl]-(4S)-(3-ethyl-3-methoxyazetidin-1-yl)-(2S)-pyrrolidinylmethoxy]cyclohexanecarboxylic acid] |
| 2.5 nM | 14 nM | CN(C)C1CN([C@H]2C[C@@H](CO[C@H]3CC[C@H](C(=O)O)CC3)N(C(=O)Cc3cc(Cl)c(NC(=O)c4csc5ccccc45)cc3Cl)C2)C1 [Example 23, Trans-4-[1-[[4-[(benzo[b]thiophen-3-ylcarbonyl)amino]-2,5-dichlorophenyl]acetyl]-(4S)-[3-(N,N-dimethylamino)azetidin-1-yl]-(2S)-pyrrolidinylmethoxy]cyclohexanecarboxylic acid] |
| 1.7 nM | 24 nM | O=C(Nc1cc(F)c(CC(=O)N2C[C@@H](N3CCC(F)(F)C3)C[C@H]2CO[C@H]2CC[C@H](C(=O)O)CC2)cc1Cl)c1csc2ccccc12 [Example 38, Trans-4-[1-[[4-[(benzo[b]thiophen-3-ylcarbonyl)amino]-5-chloro-2-fluorophenyl]acetyl]-(4S)-(3,3-difluoropyrrolidin-1-yl)-(2S)-pyrrolidinylmethoxy]cyclohexanecarboxylic acid] |
| 0.64 nM | 4.9 nM | O=C(Nc1cc(F)c(CC(=O)N2C[C@@H](N3CCC4(CC4)C3)C[C@H]2CO[C@H]2CC[C@H](C(=O)O)CC2)cc1Cl)c1csc2ccccc12 [Example 39, Trans-4-[(4S)-(5-azaspiro[2.4]heptan-5-yl)-1-[[4-[(benzo[b]thiophen-3-ylcarbonyl)amino]-5-chloro-2-fluorophenyl]acetyl]-(2S)-pyrrolidinylmethoxy]cyclohexanecarboxylic acid] |
| 2 nM | 9.1 nM | CC1CCCN1[C@H]1C[C@@H](CO[C@H]2CC[C@H](C(=O)O)CC2)N(C(=O)Cc2cc(Cl)c(NC(=O)c3csc4ccccc34)cc2F)C1 (stereo partly drawn) [Example 40, Trans-4-[1-[[4-[(benzo[b]thiophen-3-ylcarbonyl)amino]-5-chloro-2-fluorophenyl]acetyl]-(4S)-(2-methylpyrrolidin-1-yl)-(2S)-pyrrolidinylmethoxy]cyclohexanecarboxylic acid] |
| 6.8 nM | 24 nM | COC[C@H]1CCCN1[C@H]1C[C@@H](CO[C@H]2CC[C@H](C(=O)O)CC2)N(C(=O)Cc2cc(Cl)c(NC(=O)c3csc4ccccc34)cc2F)C1 [Example 44, Trans-4-[1-[[4-[(benzo[b]thiophen-3-ylcarbonyl)amino]-5-chloro-2-fluorophenyl]acetyl]-(4S)-[(2R)-methoxymethylpyrrolidin-1-yl]-(2S)-pyrrolidinylmethoxy]cyclohexanecarboxylic acid] |
| 4 nM | 62 nM | COC[C@H]1CC[C@H](COC)N1[C@H]1C[C@@H](CO[C@H]2CC[C@H](C(=O)O)CC2)N(C(=O)Cc2cc(Cl)c(NC(=O)c3csc4ccccc34)cc2F)C1 [Example 49] |
